Experiments:
[1] = system: Mycobacterium tuberculosis Erdman (autoluminescent); test: total FIC50 (Loewe) at 50% inhibition, three-drug combination (log2); higher = more antagonistic
Description: (§1)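 DiaMOND equipotent three-drug combination dose responses (10 doses, 1.5- or 2-fold spacing, centred on IC90) against autoluminescent M. tuberculosis Erdman in 8 in vitro models. Read-out is OD600, or luminescence for the intracellular and dormancy models, normalised to untreated wells. Hill-fit Einf, AUC25 and GRinf are potency metrics; FIC50 and FIC90 are total Loewe fractional inhibitory concentrations as log2 (negative = synergy).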

[2] = system: Mycobacterium tuberculosis Erdman (autoluminescent); test: total FIC90 (Loewe) at 90% inhibition, three-drug combination (log2); higher = more antagonistic
Description: as §1

[3] = system: Mycobacterium tuberculosis Erdman (autoluminescent); test: Einf, fitted maximum growth inhibition of three-drug combination (fraction); higher = stronger maximal inhibition
Description: as §1

[4] = system: Mycobacterium tuberculosis Erdman (autoluminescent); test: AUC25, normalised area under dose response up to IC25 (three-drug combination) (fraction (0-1)); higher = more potent at low dose
Description: as §1

[5] = system: Mycobacterium tuberculosis Erdman (autoluminescent); test: GRinf, maximum normalised growth rate inhibition (three-drug combination) (unitless (-1 to 1)); higher = less effect (negative = killing)
Description: as §1

CC(C)/N=c1\cc2n(-c3ccc(Cl)cc3)c3ccccc3nc-2cc1Nc1ccc(Cl)cc1 [clofazimine] + COc1c(N2C[C@@H]3CCCN[C@@H]3C2)c(F)cc2c(=O)c(C(=O)O)cn(C3CC3)c12 [moxifloxacin] + CO[C@H]1/C=C/O[C@@]2(C)Oc3c(C)c(O)c4c(O)c(c(/C=N/N5CCN(C6CCCC6)CC5)c(O)c4c3C2=O)NC(=O)/C(C)=C\C=C\[C@H](C)[C@H](O)[C@@H](C)[C@@H](O)[C@@H](C)[C@H](OC(C)=O)[C@@H]1C [rifapentine]
Details	AUC25, [4]	Einf, [3]	GRinf, [5]	total FIC50, [1]	total FIC90, [2]
in vitro model: acidic pH 5.7, time point: constant (~7 days, model-specific)	0.0597	0.791	0.0664	0.757	–
in vitro model: acidic pH 5.7, time point: terminal (~4-5 doublings, model-specific)	0.0785	0.994	-0.157	0.662	0.776
in vitro model: intracellular J774, time point: constant = terminal	–	0.896	-0.177	–	0.705

Details	AUC25, [4]	Einf, [3]	GRinf, [5]	total FIC50, [1]	total FIC90, [2]
in vitro model: butyrate, time point: constant (~7 days, model-specific)	0.109	0.951	-0.179	0.683	0.815
in vitro model: butyrate, time point: terminal (~4-5 doublings, model-specific)	0.0865	0.976	-0.126	0.677	0.878
in vitro model: cholesterol 0.05 mM, time point: constant (~7 days, model-specific)	0.117	0.651	-0.0835	0.506	–
in vitro model: cholesterol 0.05 mM, time point: terminal (~4-5 doublings, model-specific)	0.106	0.826	0.0322	1.24	0.476
in vitro model: cholesterol-high 0.2 mM, time point: constant (~7 days, model-specific)	0.122	0.933	-0.651	0.36	0.939
in vitro model: cholesterol-high 0.2 mM, time point: terminal (~4-5 doublings, model-specific)	0.0999	1	-0.936	0.593	0.687
in vitro model: dormancy (butyrate + nitrate, low O2), time point: constant (~7 days, model-specific)	0.0884	0.916	0.189	0.695	0.16
in vitro model: dormancy (butyrate + nitrate, low O2), time point: terminal (~4-5 doublings, model-specific)	0.0815	0.985	-0.35	0.807	1.55
in vitro model: standard 7H9 glycerol, time point: constant = terminal	0.11	0.961	-0.153	0.103	0.69
in vitro model: valerate, time point: constant (~7 days, model-specific)	0.121	0.922	-0.0961	0.866	–
in vitro model: valerate, time point: terminal (~4-5 doublings, model-specific)	0.0636	0.937	0.0037	0.401	0.131

CC(C)/N=c1\cc2n(-c3ccc(Cl)cc3)c3ccccc3nc-2cc1Nc1ccc(Cl)cc1 [clofazimine] + O=[N+]([O-])c1cn2c(n1)OC[C@@H](OCc1ccc(OC(F)(F)F)cc1)C2 [pretomanid] + CO[C@H]1/C=C/O[C@@]2(C)Oc3c(C)c(O)c4c(O)c(c(/C=N/N5CCN(C)CC5)c(O)c4c3C2=O)NC(=O)/C(C)=C\C=C\[C@H](C)[C@H](O)[C@@H](C)[C@@H](O)[C@@H](C)[C@H](OC(C)=O)[C@@H]1C [rifampicin]
Details	AUC25, [4]	Einf, [3]	GRinf, [5]	total FIC50, [1]	total FIC90, [2]
in vitro model: acidic pH 5.7, time point: constant (~7 days, model-specific)	0.113	0.916	-0.179	0.218	–
in vitro model: acidic pH 5.7, time point: terminal (~4-5 doublings, model-specific)	0.073	0.989	-0.161	0.575	0.276
in vitro model: intracellular J774, time point: constant = terminal	–	0.992	-0.685	–	-0.529

Details	AUC25, [4]	Einf, [3]	GRinf, [5]	total FIC50, [1]	total FIC90, [2]
in vitro model: butyrate, time point: constant (~7 days, model-specific)	0.104	0.936	-0.134	0.432	0.0534
in vitro model: butyrate, time point: terminal (~4-5 doublings, model-specific)	0.0947	0.977	-0.128	0.197	0.399
in vitro model: cholesterol 0.05 mM, time point: constant (~7 days, model-specific)	0.124	0.696	-0.174	1.03	–
in vitro model: cholesterol 0.05 mM, time point: terminal (~4-5 doublings, model-specific)	0.0924	0.844	0.0526	1.18	0.826
in vitro model: cholesterol-high 0.2 mM, time point: constant (~7 days, model-specific)	0.0944	0.891	-0.242	1.29	1.16
in vitro model: cholesterol-high 0.2 mM, time point: terminal (~4-5 doublings, model-specific)	0.0908	1	-0.716	1.57	1.36
in vitro model: dormancy (butyrate + nitrate, low O2), time point: constant (~7 days, model-specific)	0.0988	0.938	0.038	-0.678	-1.51
in vitro model: dormancy (butyrate + nitrate, low O2), time point: terminal (~4-5 doublings, model-specific)	0.0571	0.993	-0.337	-0.503	-0.477
in vitro model: standard 7H9 glycerol, time point: constant = terminal	0.11	0.93	0.0153	-0.349	-0.0486
in vitro model: valerate, time point: constant (~7 days, model-specific)	0.0751	0.857	0.0268	0.706	–
in vitro model: valerate, time point: terminal (~4-5 doublings, model-specific)	0.0551	0.929	0.0406	0.736	0.763
